Results: patent EP2812315B1, “PYRROLIC DERIVATIVES, PROCESSES FOR PREPARING THE SAME AND THEIR USES AS A DRUG” (Universite Joseph Fourier, priority 2012, dated 2013)
Converted amounts (≈) assume the structure as drawn.

What was measured:
Assay in all cases: Other MIC determination, microdilution method (CLSI M07-A9) with modifications
Format in all cases: cell-based
[1] = test system: Staphylococcus capitis (CHUG-Scapi10); details: clinical strain
Protocol: (§1) The microdilution method recommended by the Clinical and Laboratory Standard Institute [M07-A9, Vol.32, N°2] was used with the following modifications.
(§2) Bacterial inocula were prepared in Mueller Hinton broth (MH2, BioMérieux, Marcy L'Etoile, France). They were dispensed in 96 well microtiter plates (10^6 CFU/ml of final inoculum, 192 µL per well).
(§3) To avoid cross-contaminations in microtiter plates, one row was left blank between each strain tested. Microplates were incubated for 18h at 37 °C in ambient air. Then MICs were read visually and, in case of visual reading difficulties, confirmed using a spectrophotometer at a wavelength of 630 nm (BioTek® EL808 Absorbance Microplate Reader). MICs corresponded to the minimum pyrrolic compound concentrations that allowed complete visual growth inhibition of bacteria. Drug-free cultures served as growth controls.
(§4) We used four Staphylococcus aureus strains. Two reference strains were provided by the French reference center for Staphylococcus spp. (Lyon, France), including one methicillin-susceptible (MSSA 476) and one methicillin-resistant (MRSA 252) S. aureus strains. The two remaining S. aureus strains were purchased from the CRBIP (Centre de Ressources Biologiques de l'Institut Pasteur): a vancomycin-intermediate strain (ATCC 106414) and a S. aureus strain (SA-1199B) resistant to fluoroquinolones due to overexpression of the NorA multidrug efflux pump. Coagulase-negative Staphylococcus strains included three reference strains purchased from CRBIP: a methicillin-susceptible S. epidermidis strain (ATCC 12228), a methicillin-resistant S. epidermidis strain (ATCC 49461), and a methicillin-susceptible S. sciuri strain (ATCC 29061). We also used 37 clinical strains belonging to the following coagulase-negative Staphylococcus species: S. arlettae (two strains), S. capitis (nine strains), S. epidermidis (one strain), S. haemolyticus (six strains), S. hominis (eight strains), S. lugdunensis (one strain), S. massiliensis (one strain), S. pettenkoferi (two strains), S. saprophyticus (two strains), S. simulans (one strain), and S. warneri (four strains) . Identification of the clinical strains was first obtained using VITEK® 2 System (Biomérieux) and confirmed by amplification and sequencing of the tuf gene (Reference: Bergeron, M., O. Dauwalder, M. Gouy, A.-M. Freydiere, M. Bes, H. Meugnier, Y. Benito, J. Etienne, G. Lina, F. Vandenesch, and S. Boisset. Species identification of staphylococci by amplification and sequencing of the tuf gene compared to the gap gene and by matrix-assisted laser desorption ionization time-of-flight mass spectrometry, Eur. J. Clin. Microbial. Infect. Dis. 2011, 30, 343-354).
(§5) The activity of the pyrrolic compounds 3c and 3i was further tested against 32 clinical strains belonging to 11 coagulase-negative Staphylococcus species.

[2] = test system: Staphylococcus capitis (CHUG-Scapi3); details: clinical strain
Protocol: as §1, §2, §3, §4, §5

[3] = test system: Staphylococcus hominis (CHUG-Shom2); details: clinical strain
Protocol: as §1, §2, §3, §4, §5

[4] = test system: Staphylococcus hominis (CHUG-Shom3); details: clinical strain
Protocol: as §1, §2, §3, §4, §5

[5] = test system: Staphylococcus capitis (CHUG-Scapi6); details: clinical strain
Protocol: as §1, §2, §3, §4, §5

[6] = test system: Staphylococcus warneri (CHUG-Swar2); details: clinical strain
Protocol: as §1, §2, §3, §4, §5

[7] = test system: Staphylococcus haemolyticus (CHUG-Shae6)
Protocol: as §1, §2, §3, §4, §5

[8] = test system: Staphylococcus hominis (CHUG-Shom4); details: clinical strain
Protocol: as §1, §2, §3, §4, §5

[9] = test system: Staphylococcus warneri (CHUG-Swar3); details: clinical strain
Protocol: as §1, §2, §3, §4, §5

[10] = test system: Staphylococcus capitis (CHUG-Scapi4); details: clinical strain
Protocol: as §1, §2, §3, §4, §5

[11] = test system: Staphylococcus massiliensis (CHUG-Smas1); details: clinical strain
Protocol: as §1, §2, §3, §4, §5

[12] = test system: Staphylococcus pettenkoferi (CHUG-Spet2); details: clinical strain
Protocol: as §1, §2, §3, §4, §5

[13] = test system: Staphylococcus capitis (CHUG-Scapi5); details: clinical strain
Protocol: as §1, §2, §3, §4, §5

[14] = test system: Staphylococcus lugdunensis (CHUG-Slug1); details: clinical strain
Protocol: as §1, §2, §3, §4, §5

[15] = test system: Staphylococcus haemolyticus (CHUG-Shae2)
Protocol: as §1, §2, §3, §4, §5

[16] = test system: Staphylococcus hominis (CHUG-Shom6); details: clinical strain
Protocol: as §1, §2, §3, §4, §5

[17] = test system: Staphylococcus haemolyticus (CHUG-Shae3)
Protocol: as §1, §2, §3, §4, §5

[18] = test system: Staphylococcus arlettae (CHUG-Sarl2, meti-R)
Protocol: as §1, §2, §3, §4, §5

[19] = test system: Staphylococcus arlettae (CHUG-Sarl1); details: clinical strain
Protocol: as §1, §2, §3, §4, §5

[20] = test system: Staphylococcus epidermidis (CHUG-Sepi1); details: clinical strain
Protocol: as §1, §2, §3, §4, §5

[21] = test system: Staphylococcus saprophyticus (CHUG-Ssap2); details: clinical strain
Protocol: as §1, §2, §3, §4, §5

[22] = test system: Staphylococcus warneri (CHUG-Swar4); details: clinical strain
Protocol: as §1, §2, §3, §4, §5

[23] = test system: Staphylococcus capitis (CHUG-Scapi7); details: clinical strain
Protocol: as §1, §2, §3, §4, §5

[24] = test system: Staphylococcus haemolyticus (CHUG-Shae7)
Protocol: as §1, §2, §3, §4, §5

[25] = test system: Staphylococcus capitis (CHUG-Scapi9); details: clinical strain
Protocol: as §1, §2, §3, §4, §5

[26] = test system: Staphylococcus haemolyticus (CHUG-Shae4)
Protocol: as §1, §2, §3, §4, §5

[27] = test system: Staphylococcus capitis (CHUG-Scapi2); details: clinical strain
Protocol: as §1, §2, §3, §4, §5

[28] = test system: Staphylococcus saprophyticus (CHUG-Ssap1); details: clinical strain
Protocol: as §1, §2, §3, §4, §5

[29] = test system: Staphylococcus simulans (CHUG-Ssim1); details: clinical strain
Protocol: as §1, §2, §3, §4, §5

[30] = test system: Staphylococcus hominis (CHUG-Shom7); details: clinical strain
Protocol: as §1, §2, §3, §4, §5

[31] = test system: Staphylococcus hominis (CHUG-Shom8); details: clinical strain
Protocol: as §1, §2, §3, §4, §5

[32] = test system: Staphylococcus hominis (CHUG-Shom5); details: clinical strain
Protocol: as §1, §2, §3, §4, §5

SMILES | MIC [1] [µg/mL] | MIC [2] [µg/mL] | MIC [3] [µg/mL] | MIC [4] [µg/mL] | MIC [5] [µg/mL] | MIC [6] [µg/mL] | MIC [7] [µg/mL] | MIC [8] [µg/mL] | MIC [9] [µg/mL] | MIC [10] [µg/mL] | MIC [11] [µg/mL] | MIC [12] [µg/mL] | MIC [13] [µg/mL] | MIC [14] [µg/mL] | MIC [15] [µg/mL] | MIC [16] [µg/mL] | MIC [17] [µg/mL] | MIC [18] [µg/mL] | MIC [19] [µg/mL] | MIC [20] [µg/mL] | also measured
CC(=O)c1c(C)[nH]c(C(c2[nH]c(C)c(C(C)=O)c2C)c2csc3ccccc23)c1C [3i] | 2 (≈ 4.78 µM) | 1 (≈ 2.39 µM) | > 16 | > 32 | 1 (≈ 2.39 µM) | 1 (≈ 2.39 µM) | 4 (≈ 9.56 µM) | 16 (≈ 38.2 µM) | 1 (≈ 2.39 µM) | 1 (≈ 2.39 µM) | > 16 | > 16 | 2 (≈ 4.78 µM) | > 16 | 8 (≈ 19.1 µM) | > 32 | 4 (≈ 9.56 µM) | 16 (≈ 38.2 µM) | > 16 | > 32 | MIC [21]: 8 µg/mL (≈ 19.1 µM); MIC [22]: 4 µg/mL (≈ 9.56 µM); MIC [23]: 1 µg/mL (≈ 2.39 µM); MIC [24]: 4 µg/mL (≈ 9.56 µM); MIC [25]: 2 µg/mL (≈ 4.78 µM); MIC [26]: 4 µg/mL (≈ 9.56 µM); MIC [27]: 2 µg/mL (≈ 4.78 µM); MIC [28]: 8 µg/mL (≈ 19.1 µM); MIC [29]: > 32 µg/mL; MIC [30]: 8 µg/mL (≈ 19.1 µM); MIC [31]: > 32 µg/mL; MIC [32]: 16 µg/mL (≈ 38.2 µM)
CC(=O)c1c(C)[nH]c(C(c2ccc(Cl)cc2)c2[nH]c(C)c(C(C)=O)c2C)c1C [3c] | 8 (≈ 20.2 µM) | 8 (≈ 20.2 µM) | > 32 | > 32 | 8 (≈ 20.2 µM) | 8 (≈ 20.2 µM) | 16 (≈ 40.3 µM) | > 32 | 8 (≈ 20.2 µM) | 4 (≈ 10.1 µM) | > 32 | > 32 | 8 (≈ 20.2 µM) | > 32 | > 32 | > 32 | 16 (≈ 40.3 µM) | > 32 | > 32 | 8 (≈ 20.2 µM) | MIC [21]: > 32 µg/mL; MIC [22]: 16 µg/mL (≈ 40.3 µM); MIC [23]: 8 µg/mL (≈ 20.2 µM); MIC [24]: 16 µg/mL (≈ 40.3 µM); MIC [25]: 8 µg/mL (≈ 20.2 µM); MIC [26]: 16 µg/mL (≈ 40.3 µM); MIC [27]: 16 µg/mL (≈ 40.3 µM); MIC [28]: > 32 µg/mL; MIC [29]: > 32 µg/mL; MIC [30]: > 32 µg/mL; MIC [31]: > 32 µg/mL; MIC [32]: 8 µg/mL (≈ 20.2 µM)
